# Measurements: US20150246093A1, “ORAL FORMULATIONS OF ANGIOTENSIN” (TARIX PHARMACEUTICALS LTD., priority 2012, published 2015)
# Where two headings read alike, the source gives them in different places.
# Experiment: Pharmacokinetics after intra-duodenal injection (ID) in anesthetized rats, model mimicking enteric-coated oral dosage form, plasma LC-MS
# Assay type: in vivo, rat
# Details: rat, plasma; for Tmax / AUC(0-t) / Cmax / Half-Life: other: intra-duodenal injection (ID); for AUC(0-t): read-out: AUC0-90 (converted); for Cmax: read-out: Cmax; for level at 5 min: time point 5 min; for level at 5 min / level at 10 min / level at 20 min / level at 40 min / level at 1 h / level at 1.5 h: Average, read-out: Angiotensin (1-7) concentration; for level at 10 min: time point 10 min; for level at 20 min: time point 20 min; for level at 40 min: time point 40 min; for level at 1 h: time point 60 min; for level at 1.5 h: time point 90 min
# Procedure: This model mimics the release and absorption expected from an orally delivered enteric coated solid dosage form such as capsule or tablet.
# After extraction, the samples were then transferred to ice-cold tubes containing a protease inhibitor cocktail. The samples were kept on ice until they were centrifuged at 4° C. to obtain plasma. The plasma supernatants were then frozen −70° C. until analysis using an LC-MS assay.
# The oral delivery of an angiotensin (1-7) peptide (e.g., TXA127) was then evaluated in a rat model that mimics the release of the peptide into the intestine by enteric-coated capsule. Briefly, the duodenums of anesthetized rats were surgically exposed, and an angiotensin (1-7) peptide was delivered through a 27 gauge needle into the duodenum. A baseline was obtained by ID administration of an angiotensin (1-7) in PBS. Samples of blood was removed from the carotid artery before and 5, 10, 20, 40, 60 and 90 minutes after peptide administration. Subsequently, an angiotensin (1-7) peptide was administered ID in 400 mM citrate buffer (pH 3.5) and lauroyl-L-carnitine (LLC) (10 mg/ml), a formulation that mimics the contents of the enteric-coated capsules. In order to maximize the stability of TXA127 in rat circulation, captopril (e.g., 0.5 mg/ml or 5 mg/ml) may be added to the formulations. Blood samples were taken at the same time points as the baseline study and handled as described above for analysis.
# [1] = 3 mg, ID 0.3 ml A [10 mg/ml in PBS], Mean PK Values (average of individual PK parameters)
# [2] = 3 mg, pH 3.5, ID 0.3 ml B [10 mg/ml, 10 mg/ml LLC, 400 mM Citrate pH 3.5, 150 mM NaCl], Average (PK value of the mean concentrations)
# [3] = 3 mg, pH 3.5, ID 0.3 ml B [10 mg/ml, 10 mg/ml LLC, 400 mM Citrate pH 3.5, 150 mM NaCl], Mean PK Values (average of individual PK parameters)
# [4] = 3 mg, pH 3.5, ID 0.3 ml C [10 mg/ml, Captopril 0.5 mg/ml, 10 mg/ml LLC, 400 mM Citrate pH 3.5, 150 mM NaCl], Average (PK value of the mean concentrations)
# [5] = 3 mg, pH 3.5, ID 0.3 ml C [10 mg/ml, Captopril 0.5 mg/ml, 10 mg/ml LLC, 400 mM Citrate pH 3.5, 150 mM NaCl], Mean PK Values (average of individual PK parameters)
# [6] = 3 mg, pH 3.5, ID 0.3 ml C [10 mg/ml, Captopril 5 mg/ml, 10 mg/ml LLC, 400 mM Citrate pH 3.5, 150 mM NaCl], Average (PK value of the mean concentrations)
# [7] = 3 mg, pH 3.5, ID 0.3 ml C [10 mg/ml, Captopril 5 mg/ml, 10 mg/ml LLC, 400 mM Citrate pH 3.5, 150 mM NaCl], Mean PK Value (average of individual PK parameters)
# [8] = pH 3.5, ID 0.3 ml C [10 mg/ml, Captopril 0.5 mg/ml, 10 mg/ml LLC, 400 mM Citrate pH 3.5, 150 mM NaCl]
# [9] = pH 3.5, ID 0.3 ml C [10 mg/ml, Captopril 5 mg/ml, 10 mg/ml LLC, 400 mM Citrate pH 3.5, 150 mM NaCl]
structure (smiles),measurement,setting,value
"CC[C@H](C)[C@H](NC(=O)[C@H](Cc1ccc(O)cc1)NC(=O)[C@@H](NC(=O)[C@H](CCCNC(=N)N)NC(=O)[C@@H](N)CC(=O)O)C(C)C)C(=O)N[C@@H](Cc1c[nH]cn1)C(=O)N1CCC[C@H]1C(=O)O [Angiotensin (1-7), Asp^1-Arg^2-Val^3-Tyr^4-Ile^5-His^6-Pro^7]",Tmax,"3 mg, ID 0.3 ml A [10 mg/ml in PBS], Average (PK value of the mean concentrations), read-out: Tmax (converted)",60 min
same,AUC(0-t),[1],6.72 ng·h/mL
same,Cmax,[1],7.5 ng/mL
same,Half-Life,"3 mg, ID 0.3 ml A [10 mg/ml in PBS], Mean PK Values (average of individual PK parameters), read-out: Half-Life",38.9 min
same,Tmax,"3 mg, ID 0.3 ml A [10 mg/ml in PBS], Mean PK Values (average of individual PK parameters), read-out: Tmax (converted)",46 min
same,Half-Life,"3 mg, ID, 0.3 mL of 10 mg/mL A(1-7) formulated in PBS, 6 rats, range over the group, read-out: Half-lives",7 to 140 min
same,Tmax,"3 mg, ID, 0.3 mL of 10 mg/mL A(1-7) formulated in PBS, 6 rats, range over the group, read-out: Tmax after administration",10 to 60 min
same,AUC(0-t),[2],71.2 ng·h/mL
same,Cmax,[2],416 ng/mL
same,Half-Life,"3 mg, pH 3.5, ID 0.3 ml B [10 mg/ml, 10 mg/ml LLC, 400 mM Citrate pH 3.5, 150 mM NaCl], Average (PK value of the mean concentrations), read-out: Half-Life",13 min
same,Tmax,"3 mg, pH 3.5, ID 0.3 ml B [10 mg/ml, 10 mg/ml LLC, 400 mM Citrate pH 3.5, 150 mM NaCl], Average (PK value of the mean concentrations), read-out: Tmax (converted)",5 min
same,AUC(0-t),[3],71.2 ng·h/mL
same,Cmax,[3],419 ng/mL
same,Half-Life,"3 mg, pH 3.5, ID 0.3 ml B [10 mg/ml, 10 mg/ml LLC, 400 mM Citrate pH 3.5, 150 mM NaCl], Mean PK Values (average of individual PK parameters), read-out: Half-Life",46.4 min
same,Tmax,"3 mg, pH 3.5, ID 0.3 ml B [10 mg/ml, 10 mg/ml LLC, 400 mM Citrate pH 3.5, 150 mM NaCl], Mean PK Values (average of individual PK parameters), read-out: Tmax (converted)",5.8 min
same,Tmax,"3 mg, pH 3.5, ID 0.3 ml B [10 mg/ml, 10 mg/ml LLC, 400 mM Citrate pH 3.5, 150 mM NaCl], individual rats, read-out: Tmax (converted)",5 min
same,AUC(0-t),[4],126 ng·h/mL
same,Cmax,[4],628 ng/mL
same,Half-Life,"3 mg, pH 3.5, ID 0.3 ml C [10 mg/ml, Captopril 0.5 mg/ml, 10 mg/ml LLC, 400 mM Citrate pH 3.5, 150 mM NaCl], Average (PK value of the mean concentrations), read-out: Half-Life",14 min
same,Tmax,"3 mg, pH 3.5, ID 0.3 ml C [10 mg/ml, Captopril 0.5 mg/ml, 10 mg/ml LLC, 400 mM Citrate pH 3.5, 150 mM NaCl], Average (PK value of the mean concentrations), read-out: Tmax (converted)",5 min
same,AUC(0-t),[5],119 ng·h/mL
same,Cmax,[5],609 ng/mL
same,Half-Life,"3 mg, pH 3.5, ID 0.3 ml C [10 mg/ml, Captopril 0.5 mg/ml, 10 mg/ml LLC, 400 mM Citrate pH 3.5, 150 mM NaCl], Mean PK Values (average of individual PK parameters), read-out: Half-Life",19.4 min
same,Tmax,"3 mg, pH 3.5, ID 0.3 ml C [10 mg/ml, Captopril 0.5 mg/ml, 10 mg/ml LLC, 400 mM Citrate pH 3.5, 150 mM NaCl], Mean PK Values (average of individual PK parameters), read-out: Tmax (converted)",7.1 min
same,Tmax,"3 mg, pH 3.5, ID 0.3 ml C [10 mg/ml, Captopril 0.5 mg/ml, 10 mg/ml LLC, 400 mM Citrate pH 3.5, 150 mM NaCl], individual rats, read-out: Tmax (converted)",5 min
same,AUC(0-t),[6],157 ng·h/mL
same,Cmax,[6],619 ng/mL
same,Half-Life,"3 mg, pH 3.5, ID 0.3 ml C [10 mg/ml, Captopril 5 mg/ml, 10 mg/ml LLC, 400 mM Citrate pH 3.5, 150 mM NaCl], Average (PK value of the mean concentrations), read-out: Half-Life",13 min
same,Tmax,"3 mg, pH 3.5, ID 0.3 ml C [10 mg/ml, Captopril 5 mg/ml, 10 mg/ml LLC, 400 mM Citrate pH 3.5, 150 mM NaCl], Average (PK value of the mean concentrations), read-out: Tmax (converted)",5 min
same,AUC(0-t),[7],156 ng·h/mL
same,Cmax,[7],640 ng/mL
same,Half-Life,"3 mg, pH 3.5, ID 0.3 ml C [10 mg/ml, Captopril 5 mg/ml, 10 mg/ml LLC, 400 mM Citrate pH 3.5, 150 mM NaCl], Mean PK Value (average of individual PK parameters), read-out: Half-Life",14.1 min
same,Tmax,"3 mg, pH 3.5, ID 0.3 ml C [10 mg/ml, Captopril 5 mg/ml, 10 mg/ml LLC, 400 mM Citrate pH 3.5, 150 mM NaCl], Mean PK Value (average of individual PK parameters), read-out: Tmax (converted)",5.8 min
same,Tmax,"3 mg, pH 3.5, ID 0.3 ml C [10 mg/ml, Captopril 5 mg/ml, 10 mg/ml LLC, 400 mM Citrate pH 3.5, 150 mM NaCl], individual rats, read-out: Tmax (converted)",5 min
same,Half-Life,"3 mg, pH 3.5, ID, 0.3 mL of 10 mg/mL A(1-7) with 10 mg/mL LLC, 400 mM Citrate, 150 mM NaCl pH 3.5, range over the group, read-out: Half-lives",9.3 to 173 min
same,Tmax,"3 mg, pH 3.5, ID, 0.3 mL of 10 mg/mL A(1-7) with 10 mg/mL LLC, 400 mM Citrate, 150 mM NaCl pH 3.5, range over the group, read-out: Tmax after administration",5 to 10 min
same,Half-Life,"pH 3.5, ID, 0.3 mL of 10 mg/mL A(1-7) with 0.5 mg/mL captopril, 10 mg/mL LLC, 400 mM Citrate, 150 mM NaCl pH 3.5, seven rats (Table 4), range over the group, read-out: Half-lives",11.9 to 29.1 min
same,Half-Life,"ID, 0.3 mL of 10 mg/mL A(1-7) with 0.5 mg/mL captopril (as printed in the text on Table 5), 10 mg/mL LLC, 400 mM Citrate, 150 mM NaCl pH 3.5, six rats, range over the group, read-out: Half-lives",7.97 to 25.6 min
same,Tmax,"ID, 0.3 mL of 10 mg/mL A(1-7) with 0.5 mg/mL captopril, 10 mg/mL LLC, 400 mM Citrate, 150 mM NaCl pH 3.5, seven rats (Table 4), range over the group, read-out: Tmax after administration",5 to 10 min
same,level at 5 min,[8],628 ng/mL
same,level at 10 min,[8],233 ng/mL
same,level at 20 min,[8],129 ng/mL
same,level at 40 min,[8],13.9 ng/mL
same,level at 1 h,[8],14.4 ng/mL
same,level at 1.5 h,[8],7.74 ng/mL
same,level at 5 min,[9],619 ng/mL
same,level at 10 min,[9],424 ng/mL
same,level at 20 min,[9],138 ng/mL
same,level at 40 min,[9],24.1 ng/mL
same,level at 1 h,[9],19.2 ng/mL
same,level at 1.5 h,[9],5.83 ng/mL
